Results as given in patent US7737182B2, “Pharmaceuticals for xerosis” (Taisho Pharmaceutical Co., Ltd., priority 2001, dated 2010).

Assays:
[1] = test system: BALB/c male mice; experiment: Mouse skin's barrier function, treatment test, TEWL (Test Example 5); assay type: in vivo; details: barrier destroyed with acetone/diethyl ether; 0.01% in ethanol, 100 μL, once a day for 2 days
Experimental: Six-week-old BALB/c male mice in groups of eight were shaven in a rostral dorsolateral area of 4 cm^2 (2 cm×2 cm) with electric clippers and the shaven area was covered for 60 seconds with an absorbent cotton (2 cm×2 cm) impregnated with a 1:1 liquid mixture of acetone and diethyl ether. This treatment for destroying the skin's barrier function was performed for 3 consecutive days on once-a-day basis. Starting on the day next to completion of the treatment for barrier destruction at day 3, a solvent (ethanol, 100 μL) or a drug dissolved in the solvent (compound No. 7, PGD2, PGF2α, or PGE1, all being at 0.01% in an amount of 100 μL) was applied to the barrier destroyed site for 2 days on once-a-day basis. On the day next to the second application of the solvent or drug, the transepidermal water loss (TEWL) at the same site was measured with Tewameter (TM210 of Courage & Khazawa, Germany) to evaluate the drug's action.

[2] = target: T1, prostaglandin D receptor (Homo sapiens, UniProt Q13258); experiment: Antagonism by BW A868C of the suppression of ADP-induced human platelet aggregation; assay type: cell-based; details: final concentration 1000 nmol/L, human PRP, ADP 3 μmol/L
T1 construct: separate the supernatant (PRP, or platelet-rich plasma); endogenous in cells; host or cells: human platelets (platelet-rich plasma from healthy male donors)
T1 sequence (Q13258 1-359): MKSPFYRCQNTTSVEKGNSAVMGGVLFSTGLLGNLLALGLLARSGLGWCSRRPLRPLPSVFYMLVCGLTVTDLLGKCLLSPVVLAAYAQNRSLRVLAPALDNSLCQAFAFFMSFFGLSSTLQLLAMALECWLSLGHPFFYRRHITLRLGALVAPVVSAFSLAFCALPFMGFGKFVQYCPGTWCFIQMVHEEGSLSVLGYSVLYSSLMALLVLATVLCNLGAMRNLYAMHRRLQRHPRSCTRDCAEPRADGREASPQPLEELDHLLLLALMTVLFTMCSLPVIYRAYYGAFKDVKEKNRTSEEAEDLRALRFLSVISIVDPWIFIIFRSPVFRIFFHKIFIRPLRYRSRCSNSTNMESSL
Experimental: The prostaglandin D receptor selective antagonist used in the test was ((+/−)-3-benzyl-5-(6-carboxyhexyl)-1-(2-cyclohexyl-2-hydroxyethylamino)-hydantoin) (hereunder designated BW A868C) (Sigma-Aldrich Japan K.K.)
BW A868C was diluted with ethanol to final concentrations of 0.03 μmol/L, 0.1 μmol/L, 0.3 μmol/L, 1 μmol/L, 3 μmol/L and 10 μmol/L.
Compound No. 7 and PGD2 were diluted with ethanol to 287 nmol/L and 300 nmol/L, respectively, for subsequent use.
Blood was taken from the cubital veins of human healthy males and sampled into a tube containing 3.13% sodium citrate. The blood sample was centrifuged at 1,000 rpm for 10 minutes at 20° C. to separate the supernatant (PRP, or platelet-rich plasma) and the residue was further centrifuged at 3,000 rpm for 10 minutes at 20° C. to separate the supernatant (PPP, or platelet-poor plasma). The platelet count of PRP was appropriately diluted with PPP to 30×10^4 platelets/μL for subsequent use.
Platelet aggregation was measured with a platelet aggregation measuring instrument (PAM-8C; MC MEDICAL Co., LTD.) by the Born method (Nature, vol. 194, p. 927, 1962). A portion (273 μL) of PRP (for the BW A868C groups, 1 μL of BW A868C was added at varying concentrations) was preincubated at 37° C. for 3 minutes with stirring at 1,000 rpm. After the preincubation, 1 μL of ethanol or a test substance (compound No. 7: final concentration at 95.7 nmol/L; PGD2: final concentration at 1000 nmol/L) was added and the mixture was incubated at 37° C. for 3 minutes with stirring at 1000 rpm. After the incubation, 25 μL of ADP (final concentration at 3 μmol/L) was added to induce platelet aggregation and a maximum percent aggregation for 5 minutes was measured.

[3] = test system: guinea pig platelets; experiment: Suppression of ADP-induced aggregation of guinea pig platelets; assay type: cell-based; details: guinea pig platelet-rich plasma, ADP (3 μM)
Experimental: Ten-week-old Hartley male guinea pigs were anesthetized with pentobarbital (30 mg/kg, i.p. injected) and a total of 20 mL of blood was sampled into a syringe containing 2.0 mL of 3.8% sodium citrate. The blood was immediately centrifuged at 900 rpm for 10 minutes at 20° C. to recover the supernatant PRP. By further centrifugation at 3000 rpm for 10 minutes at 20° C., the supernatant PPP was recovered. The platelet count of PRP was diluted with PPP to 30×10^4 platelets/μL for subsequent use.
For platelet aggregation measurement, a platelet aggregation measuring instrument (PAM-8C) was employed. To 274 μL of PRP, 1 μL of a 0.287-95.7 nM test drug solution in ethanol was added and the mixture was incubated at 37° C. for 3 minutes with stirring at 1000 rpm. After the incubation, 25 μL of ADP (3 μM) was added to induce platelet aggregation and a maximum percent aggregation for 5 minutes was measured.
The percent suppression of aggregation by each test drug was calculated from the maximum percent aggregation by the test drug as relative to the maximum percent aggregation by ethanol instead of the test drug solution and IC50 values were determined from the constructed dose-response curve.

[4] = test system: BALB/c male mice; experiment: Mouse skin's barrier function, preventive test, TEWL (Test Example 6); assay type: in vivo; details: cohabitation with dermatitic NC/Nga mice; 0.01% in ethanol, 100 μL, once a day for 7 days
Experimental: Six-week-old BALB/c male mice in groups of six were shaven in a rostral dorsolateral area of 4 cm^2 (2 cm×2 cm) with electric clippers and kept in the same cage as NC/Nga mice that had developed dermatitis. From the day next to the start of cohabitation, a solvent (ethanol, 100 μL) or a drug dissolved in the solvent (compound No. 7, PGD2, PGF2α, or PGE1, all being at 0.01% in an amount of 100 μL) was applied to the shaven site for 7 days on once-a-day basis.
On the day next to the seventh application of the solvent or drug, the transepidermal water loss (TEWL) at the same site was measured with Tewameter (TM210 of Courage & Khazawa, Germany) to evaluate the drug's action, with the solvent-applied group being used as the control group.

[5] = test system: human platelets; experiment: Suppression of ADP-induced aggregation of human platelets; assay type: cell-based; details: human platelet-rich plasma, ADP (3 μM), Born method
Experimental: (A) Using the active ingredient of the present invention (compound No. 7) and PGD2 as a control for comparison, prostaglandin D receptor binding selectivity was determined with reference to the platelet aggregation suppressing action as the prostaglandin D receptor agonist action. 1. Human Platelet Aggregation Suppressing Action Suppression of ADP-Induced Aggregation of Human Platelets
The test was performed on purchased platelet-rich plasma (PRP) (6×10^8 platelets/mL) and platelet aggregation was measured based on the Born method (Nature, vol. 194, p. 927, 1962). To 100 μL of PRP, 5 μL of a 1 nM-3 μM test drug solution in ethanol was added and the mixture was incubated at 37° C. for 1 minute with stirring at 1000 rpm. To the resulting mixture, 5 μL of an aggregation inducer [ADP (3 μM)] was added to induce platelet aggregation and a maximum percent aggregation (a maximum change in light transmittance that occurred within 5 minutes after the induction of platelet aggregation) was determined by an aggregometer. The percent suppression of aggregation by each test drug was calculated from the maximum percent aggregation by the test drug as relative to the maximum percent aggregation by ethanol instead of the test drug solution and IC50 values were determined from the constructed dose-response curve.

[6] = test system: Fifty-week-old BALB/c male mice; experiment: Aged mouse skin's barrier function, treatment test, TEWL (Test Example 7); assay type: in vivo; details: 50-week-old mice; 0.0001% in ethanol, 200 μL, once a day for 3 days
Experimental: Fifty-week-old BALB/c male mice (eight in each group) were shaven in a rostral dorsolateral area of 4 cm^2 (2 cm×2 cm) with electric clippers. Starting on the next day, a solvent (ethanol, 200 μL) or a drug dissolved in the solvent (compound No. 7 or PGD2, each being at 0.0001% in an amount of 200 μL) was applied to the shaven site for 3 days on once-a-day basis.
On the day next to the third application of the solvent or drug, TEWL at the same site was measured with Tewameter (TM210 of Courage & Khazawa, Germany) to evaluate the drug's action.

**Q.** How did the “transepidermal water loss (TEWL) compared to the solvent-applied control group” value [1] turn out when CCCCC[C@H](O)/C=C/[C@H]1C(=O)C[C@H](O)[C@@H]1C/C=C\CCCC(=O)O [PGD2, prostaglandin D2, reference compound] was run?
**A.** no significant difference from the control group

**Q.** What about the “platelet aggregation suppressing action compared with control group (ethanol)” value [2] of the same compound?
**A.** significant platelet aggregation suppressing action

**Q.** And the IC50 [3]?
**A.** 54.3 ± 23 nM

**Q.** And the “transepidermal water loss (TEWL) compared to the control group” value [4]?
**A.** significant decrease in TEWL

**Q.** What about the IC50 [5] of the same compound?
**A.** 11 nM

**Q.** What about the “transepidermal water loss (TEWL) compared to the control group” value [6] of the same compound?
**A.** no significant difference from the control group
